In PMC9687286, “Hydrophobic Rose Bengal Derivatives Exhibit Submicromolar-to-Subnanomolar Activity against Enveloped Viruses” (Biomolecules, 2022):
Counter-ions that a name gives are not always drawn.

Tests used:
[1] = system: CHIKV strain Nic; assay: microbe, parasite or virus in culture; type: cell-based; conditions: Chikungunya virus, Vero, read-out: EC50 (M ± SD), CHIKV
[2] = Cell viability assay for RD cells; conditions: human
[3] = system: Enterovirus B Echovirus 13 (E13) isolate 57088; assay: microbe, parasite or virus in culture; type: cell-based; conditions: RD, 120 h, read-out: EC50 (M ± SD), E13
[4] = system: Enterovirus C vaccine strain Sabin 1 of poliovirus type 1 (PV1); assay: microbe, parasite or virus in culture; type: cell-based; conditions: RD, 120 h, read-out: EC50 (M ± SD), PV1
[5] = Cell viability assay (resazurin) for Vero cells; conditions: African green monkey, confluent Vero cell monolayers
[6] = Cell viability assay for MT-4 cells; conditions: human
[7] = system: HIV-1 strain NL4-3; assay: microbe, parasite or virus in culture; type: cell-based; conditions: Human immunodeficiency virus 1, NL43, MT4, 168 h, read-out: EC50 (M ± SD), HIV
[8] = system: SARS-CoV-2 strain PIK35; assay: microbe, parasite or virus in culture; type: cell-based; conditions: Severe acute respiratory syndrome coronavirus 2, Vero, read-out: EC50 (M ± SD), SARS-CoV-2
[9] = system: Enterovirus A Coxsackievirus A16 (CVA16) isolate 49360; assay: microbe, parasite or virus in culture; type: cell-based; conditions: RD, 120 h, read-out: EC50 (M ± SD), CVA16
[10] = physchem; conditions: aqueous with cosolvent or surfactant or cyclodextrin

Row | Compound | EC50 [1] [µM] | CC50 at 5 days [2] [µM] | EC50 [3] [µM] | EC50 [4] [µM] | CC50 at 5 days [5] [µM] | CC50 at 7 days [6] [µM] | EC50 [7] [µM] | EC50 [8] [µM] | EC50 [9] [µM] | solubility kinetic [10] [µM]
1 | CCCCOC(=O)c1c(Cl)c(Cl)c(Cl)c(Cl)c1-c1c2cc(I)c(=O)c(I)c-2oc2c(I)c(O)c(I)cc12 [2a, Rose Bengal N-Butyl Ester, Monosodium Salt] | 0.004 ± 0.002 | 21.3 ± 5.2 | > 100 | > 100 | 8 ± 1 | 15 ± 4 | 6.3 ± 2.6 | 0.05 ± 0.02 | > 100 | 3.1
2 | CCCCCCOC(=O)c1c(Cl)c(Cl)c(Cl)c(Cl)c1-c1c2cc(I)c(=O)c(I)c-2oc2c(I)c(O)c(I)cc12 [2b, Rose Bengal N-Hexyl Ester, Monosodium Salt] | 0.0007 ± 0.0003 | 21.3 ± 5.2 | > 100 | > 100 | 60 ± 15 | 15 ± 4 | 4.4 ± 1.8 | 0.4 ± 0.3 | > 100 | 1
3 | CCCCCCCCOC(=O)c1c(Cl)c(Cl)c(Cl)c(Cl)c1-c1c2cc(I)c(=O)c(I)c-2oc2c(I)c(O)c(I)cc12 [2c, Rose Bengal N-Octyl Ester, Monosodium Salt] | 0.0002 ± 0.0001 | 21.3 ± 5.2 | > 100 | > 100 | 53 ± 25 | 42 ± 10 | 8.8 ± 3.7 | 5.3 ± 1.3 | > 100 | 
4 | CCCCCCCCCCOC(=O)c1c(Cl)c(Cl)c(Cl)c(Cl)c1-c1c2cc(I)c(=O)c(I)c-2oc2c(I)c(O)c(I)cc12 [2d, Rose Bengal N-Decyl Ester, Monosodium Salt] | 0.002 ± 0.001 | 10.7 ± 2.6 | > 100 | > 100 | 60 ± 15 | 42 ± 10 | 8.8 ± 2.6 | 6.6 ± 3.1 | > 100 | 
5 | CCCCCCCCCCCCOC(=O)c1c(Cl)c(Cl)c(Cl)c(Cl)c1-c1c2cc(I)c(=O)c(I)c-2oc2c(I)c(O)c(I)cc12 [2e, Rose Bengal N-Dodecyl Ester, Monosodium Salt] | 0.038 ± 0.03 | 21.3 ± 5.2 | > 100 | > 100 | > 100 | > 50 | > 50 | 43 ± 10 | > 100 | 
6 | Cc1cn([C@H]2C[C@H](N=[N+]=[N-])[C@@H](CO)O2)c(=O)[nH]c1=O [AZT, azidothymidine, reference compound] |  |  |  |  |  | > 5 | 0.01 |  |  | 
7 | O=c1nc(NO)ccn1[C@@H]1O[C@H](CO)[C@@H](O)[C@H]1O [NHC, N^4-hydroxycytidine, reference compound] | 23.6 ± 10.2 | > 100 | 17 ± 8 | 25 ± 10 | > 100 |  |  | 4.7 ± 2.9 | 50 ± 18 | 
8 | O=C(O)c1c(Cl)c(Cl)c(Cl)c(Cl)c1-c1c2cc(I)c(=O)c(I)c-2oc2c(I)c(O)c(I)cc12 [compound 1, Rose Bengal, disodium salt, reference compound] | 0.11 ± 0.05 | 43 ± 10 | > 100 | > 100 | 43 ± 10 | > 50 | 18 ± 7 | 0.5 ± 0.2 | > 100 | > 50
